We go through eight molecules from ChEMBL document CHEMBL1150268, “Novel potent and selective thrombin inhibitors based on a central 1,4-benzoxazin-3(4H)-one scaffold” (J Med Chem, 2008).

In experiment [1] the target is Prothrombin (Homo sapiens, UniProt P00734). Put plainly: Inhibition of thrombin.
Experiment [2] is described as follows: Inhibition of trypsin.
Experiment [3] concerns the target Coagulation factor X (Homo sapiens, UniProt P00742). Put plainly: Inhibition of factor 10a.
A short description of experiment [4]: Selectivity for trypsin over thrombin.
Experiment [5] can be described thus: Selectivity for factor 10a over thrombin.

Chain of Coagulation factor X (P00742 41-179 limits assumed): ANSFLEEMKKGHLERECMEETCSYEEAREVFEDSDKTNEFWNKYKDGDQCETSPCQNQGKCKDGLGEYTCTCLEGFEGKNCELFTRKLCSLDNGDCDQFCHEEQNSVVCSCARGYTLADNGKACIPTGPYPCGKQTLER
Chain of Coagulation factor X (P00742 235-488 limits assumed): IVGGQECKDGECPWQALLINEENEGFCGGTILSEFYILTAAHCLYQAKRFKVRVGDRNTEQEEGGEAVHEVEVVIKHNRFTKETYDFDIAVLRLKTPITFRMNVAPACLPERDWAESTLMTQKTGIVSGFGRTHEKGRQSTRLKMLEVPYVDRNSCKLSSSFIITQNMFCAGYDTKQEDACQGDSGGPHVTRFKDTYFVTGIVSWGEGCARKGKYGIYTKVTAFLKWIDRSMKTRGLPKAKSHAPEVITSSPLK

For the molecule `CN1C(=O)C(Cc2ccc(C(=N)N)cc2)Oc2cc(N(Cc3ccccc3)C(=O)CCC(=O)O)ccc21` (stereo not given), the Ki in experiment [1] was 0.0065 µM; in experiment [2], 7.41 µM; in experiment [3] it was 15.9 µM. Besides, the Ratio Ki in experiment [4] amounted to 1130; in experiment [5] it was 2430.
The corresponding values for `COC(=O)C(Cc1ccccc1)C(=O)Nc1ccc2c(c1)OC(Cc1ccc(C(=N)N)cc1)C(=O)N2C` (stereo not given) are 2.73 µM, 11.2 µM, 58.7 µM, 4.1 and 22.
The corresponding values for `CCOC(=O)CCC(=O)N(Cc1ccccc1)c1ccc2c(c1)OC(Cc1ccc(C(=N)N)cc1)C(=O)N2C` (stereo not given) are 0.0058 µM, 3.1 µM, 1.05 µM, 535 and 181.
For the molecule `COC(=O)CC(=O)N(Cc1ccccc1)c1ccc2c(c1)OC(Cc1ccc(C(=N)N)cc1)C(=O)N2C` (stereo not given), the inhibition constant (Ki) in experiment [1] was 0.0034 µM; in experiment [2], 3.82 µM; in experiment [3] it was 5.71 µM. In addition, the Ratio Ki in experiment [4] was found to be 1130; in experiment [5], 1690.
For `CN1C(=O)C(Cc2ccc(C(=N)N)cc2)Oc2cc(N(Cc3ccccc3)C(=O)C(=O)O)ccc21` (stereo not given), the Ki in experiment [1] worked out at 0.011 µM; in experiment [2], 10.1 µM; in experiment [3], 9.27 µM. The Ratio Ki came to 910 in experiment [4] and 835 in experiment [5].
Turning to `CCOC(=O)C(=O)N(Cc1ccccc1)c1ccc2c(c1)OC(Cc1ccc(C(=N)N)cc1)C(=O)N2C` (stereo not given), the values for the Ki in experiment [1], in experiment [2] and in experiment [3] were 0.0036 µM, 4.29 µM and 1.94 µM, respectively. In addition, the Ratio Ki is 1190 in experiment [4] and 537 in experiment [5].
`CN1C(=O)C(Cc2ccc(C(=N)N)cc2)Oc2cc(NC(=O)C(Cc3ccccc3)C(=O)O)ccc21` (stereo not given): the inhibition constant Ki in experiment [1] is 2.94 µM; in experiment [2] it was 5.13 µM; in experiment [3] it was 33.2 µM. For the same molecule, the Ratio Ki in experiment [4] came out at 1.7; in experiment [5], 11.
In the case of `CN1C(=O)C(Cc2ccc(C(=N)N)cc2)Oc2cc(N(Cc3ccccc3)C(=O)CC(=O)O)ccc21` (stereo not given), the inhibitory constant (Ki) in experiment [1] came to 0.0026 µM; in experiment [2], 298 µM; in experiment [3] it was 139 µM. Moreover, the Ratio Ki in experiment [4] turned out to be 112000; in experiment [5] it was 52500.

The term Ki denotes a dissociation constant, usually derived from enzyme kinetics or from competition with a known ligand. Read a high Ki as weaker binding.
